The record followed here is ChEMBL document CHEMBL1201862, “PubChem BioAssay data set” (2004).

Active and inactive are the calls of the source.

The target in one assay is Major prion protein (Homo sapiens, UniProt P04156). The class given is functional, cell-based.
Assay [1] deals with 26S proteasome non-ATPase regulatory subunit 14 (Homo sapiens, UniProt O00487). The assay can be described thus: inhibition of proteasome subunit RPN11 – biochemical, fluorescence polarization, uHTS hits, confirmation (AID 602368). The class given is functional.
The target of assay [2] is Serine/threonine-protein phosphatase PP1-alpha catalytic subunit (Homo sapiens, UniProt P62136). Nature of the assay: PP1 phosphatase inhibitors, dose response, biochemical, fluorescence (AID 2403).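 Note: phosphatase turnover of OMFP into fluorescent 3-O-methylfluorescein.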
Assay [3] deals with Likely tRNA 2'-phosphotransferase (Candida albicans (strain SC5314 / ATCC MYA-2876) (Yeast), UniProt Q5A7N4). Nature of the assay: TPT1 tRNA phosphotransferase inhibitors, dose response, biochemical, fluorescence polarization (AID 2160).
Assay [4] concerns the target T1, Tyrosine-protein phosphatase non-receptor type 7 (Homo sapiens, UniProt P35236).
T1 sequence (P35236 whole entry): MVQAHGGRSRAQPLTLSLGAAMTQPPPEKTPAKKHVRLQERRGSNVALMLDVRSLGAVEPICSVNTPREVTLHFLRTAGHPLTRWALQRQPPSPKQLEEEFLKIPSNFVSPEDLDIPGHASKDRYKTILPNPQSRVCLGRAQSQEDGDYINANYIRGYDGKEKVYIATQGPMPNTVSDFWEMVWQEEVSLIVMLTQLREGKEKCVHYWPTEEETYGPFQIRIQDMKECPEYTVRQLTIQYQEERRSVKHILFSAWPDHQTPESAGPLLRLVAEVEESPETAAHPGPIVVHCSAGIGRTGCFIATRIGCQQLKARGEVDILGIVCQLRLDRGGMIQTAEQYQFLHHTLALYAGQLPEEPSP
The assay can be described thus: HTS HePTP Fluorescent Assay using OMFP substrate for In Vitro dose response studies. [Related pubchem assays (depositor defined):AID1059, AID1077, AID1784, AID2068, AID2085, AID435032, AID521]. The class given is functional.

The target in assay [5] is T2, Tyrosine-protein phosphatase non-receptor type 22 (Homo sapiens, UniProt Q9Y2R2).
T2 sequence (Q9Y2R2 whole entry): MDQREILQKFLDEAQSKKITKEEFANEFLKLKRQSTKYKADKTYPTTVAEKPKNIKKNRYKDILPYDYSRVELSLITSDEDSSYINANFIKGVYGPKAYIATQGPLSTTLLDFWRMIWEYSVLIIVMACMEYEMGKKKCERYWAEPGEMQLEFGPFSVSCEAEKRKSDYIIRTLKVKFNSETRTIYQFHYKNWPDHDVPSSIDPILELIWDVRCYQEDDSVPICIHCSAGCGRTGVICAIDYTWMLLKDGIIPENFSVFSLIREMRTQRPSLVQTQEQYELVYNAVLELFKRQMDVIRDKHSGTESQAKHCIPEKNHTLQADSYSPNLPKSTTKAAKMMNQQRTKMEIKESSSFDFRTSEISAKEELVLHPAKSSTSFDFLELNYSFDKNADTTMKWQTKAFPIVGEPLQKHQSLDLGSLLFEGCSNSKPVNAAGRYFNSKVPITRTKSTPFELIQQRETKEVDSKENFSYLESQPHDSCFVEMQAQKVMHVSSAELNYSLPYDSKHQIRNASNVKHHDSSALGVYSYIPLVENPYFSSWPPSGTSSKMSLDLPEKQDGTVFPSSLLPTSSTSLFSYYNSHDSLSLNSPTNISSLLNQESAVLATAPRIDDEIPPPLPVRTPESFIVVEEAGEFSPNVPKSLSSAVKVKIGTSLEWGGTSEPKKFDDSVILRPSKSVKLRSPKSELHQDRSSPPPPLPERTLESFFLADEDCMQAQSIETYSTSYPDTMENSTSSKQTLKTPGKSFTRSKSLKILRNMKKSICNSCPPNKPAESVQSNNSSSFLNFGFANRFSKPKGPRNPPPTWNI
Nature of the assay: LYP1 Fluorescent Assay using OMFP substrate for In Vitro dose response studies. [Related pubchem assays (depositor defined):AID1779, AID1784, AID435024].

For assay [6], the target named is T2, Tyrosine-protein phosphatase non-receptor type 22. The class given is functional.
The target of assay [7] is Guanyl-specific ribonuclease T1 (Aspergillus oryzae (strain ATCC 42149 / RIB 40), UniProt P00651). The assay can be described thus: RNase T1 inhibitors, dose response, counter-screen for TPT1 inhibitor project, biochemical, fluorescence polarization, 1536-well (AID 2167).
The target in a further assay is Prothrombin (Bos taurus, UniProt P00735). The assay can be described thus: thrombin inhibition, dose response, biochemical, fluorescence polarization, uHTS hits (AID 602369). The class given is functional.
The target in assay [8] is T2, Tyrosine-protein phosphatase non-receptor type 22. The class given is functional. The source holds these as a separate data set.
Assay [9] addresses Photoreceptor-specific nuclear receptor (Homo sapiens, UniProt Q9Y5X4). The assay can be described thus: NR2E3 inverse agonists, dose response, biochemical, TR-FRET (AID 463256). The class given is functional.
Assay [10] addresses T2, Tyrosine-protein phosphatase non-receptor type 22. Nature of the assay: inhibitors of LYP phosphatase, biochemical, fluorescence intensity, uHTS (AID 1779).
Assay [11] concerns the target Peroxisome proliferator-activated receptor gamma/Nuclear receptor corepressor 2 (Homo sapiens, UniProt P37231+Q9Y618). The assay can be described thus: Counterscreen for NR2E3 inverse agonists: TR-FRET-based biochemical high throughput dose response assay to identify inverse agonists of the interaction between peroxisome proliferator-activated receptor gamma (PPARg) and nuclear receptor co-repressor 2 (NCOR2). The class given is functional.

The target of assay [12] is T3, Serine/threonine-protein phosphatase (Homo sapiens, UniProt Q9BPW0).
T3 sequence (Q9BPW0 whole entry): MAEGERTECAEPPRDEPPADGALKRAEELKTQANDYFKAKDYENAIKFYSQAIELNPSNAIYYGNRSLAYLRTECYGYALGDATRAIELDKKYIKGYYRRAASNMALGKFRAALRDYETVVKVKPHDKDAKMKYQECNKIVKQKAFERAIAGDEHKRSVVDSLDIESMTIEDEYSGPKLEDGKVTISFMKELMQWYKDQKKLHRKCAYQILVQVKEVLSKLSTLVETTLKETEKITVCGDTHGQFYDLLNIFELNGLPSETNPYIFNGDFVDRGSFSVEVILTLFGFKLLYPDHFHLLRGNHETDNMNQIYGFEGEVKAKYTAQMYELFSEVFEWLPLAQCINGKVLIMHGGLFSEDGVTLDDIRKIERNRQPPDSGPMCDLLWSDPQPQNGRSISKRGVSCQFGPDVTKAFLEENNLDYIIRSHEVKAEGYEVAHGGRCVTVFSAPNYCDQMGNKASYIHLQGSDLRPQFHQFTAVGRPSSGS
The assay can be described thus: Counterscreen for inhibitors of PP1: fluorescence-based biochemical high throughput dose response assay to identify inhibitors of Protein Phosphatase 5 (PP5). [Related pubchem assays: 2034 (Summary (PP5 inhibitors)), 1987 (PP5 inhibitors in singlate), 2235 (PP1 inhibitors in singlate)].

The target in assay [13] is 72 kDa type IV collagenase (Homo sapiens, UniProt P08253). The assay can be described thus: Dose Response validation of uHTS RPN11 inhibitor hits using a MMP-2 Fluorescence assay. The class given is functional.
In assay [14] the target is T1, Tyrosine-protein phosphatase non-receptor type 7. The class given is functional.
Assay [15] has as its target T4, G-protein coupled receptor 55 (Homo sapiens, UniProt Q9Y2T6). Nature of the assay: GPR55 antagonist potency of analogs, SAR follow-up, imaging, U2OS, beta-arrestin-GFP, LPI agonist, set 2 (AID 2820). The class given is functional.
The target of assay [16] is T4, G-protein coupled receptor 55. Nature of the assay: GPR55 antagonists blocking LPI-driven arrestin recruitment, primary screen, imaging, U2OS, beta-arrestin-GFP, LPI agonist (AID 2013).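 Note: antagonist potency measured as reduced agonist-driven arrestin aggregation.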 The class given is functional.
In assay [17] the target is T5, Cannabinoid receptor 1 (Homo sapiens, UniProt P21554). The assay can be described thus: SAR analysis of agonists of the Cannabinoid Receptor 1 using an Image-Based Assay - Set 2. [Related pubchem assays (depositor defined):AID2013, AID2026]. The class given is functional.
Assay [18] deals with T5, Cannabinoid receptor 1. Nature of the assay: SAR analysis of antagonists of the Cannabinoid Receptor 1 using an Image-Based Assay - Set 2. [Related pubchem assays (depositor defined):AID2013, AID2026]. The class given is functional.
The target of assay [19] is T6, Cannabinoid receptor 2 (Homo sapiens, UniProt P34972). Nature of the assay: SAR analysis of agonists of the Cannabinoid Receptor 2 using an Image-Based Assay. [Related pubchem assays (depositor defined):AID2013, AID2026]. The class given is functional.
Assay [20] deals with T7, G-protein coupled receptor 35 (Homo sapiens, UniProt Q9HC97). Nature of the assay: SAR analysis of Agonists of the GPR35 Receptor using an Image-Based Assay - Set 2. [Related pubchem assays (depositor defined):AID2013, AID2026]. The class given is functional.
For assay [21], the target named is T7, G-protein coupled receptor 35. Nature of the assay: SAR analysis of Antagonists of the GPR35 Receptor using an Image-Based Assay - Set 3. [Related pubchem assays (depositor defined):AID2013, AID2026]. The class given is functional.
The target of assay [22] is T8, Heat shock factor protein 1 (Mus musculus, UniProt P38532).
T8 sequence (P38532 whole entry): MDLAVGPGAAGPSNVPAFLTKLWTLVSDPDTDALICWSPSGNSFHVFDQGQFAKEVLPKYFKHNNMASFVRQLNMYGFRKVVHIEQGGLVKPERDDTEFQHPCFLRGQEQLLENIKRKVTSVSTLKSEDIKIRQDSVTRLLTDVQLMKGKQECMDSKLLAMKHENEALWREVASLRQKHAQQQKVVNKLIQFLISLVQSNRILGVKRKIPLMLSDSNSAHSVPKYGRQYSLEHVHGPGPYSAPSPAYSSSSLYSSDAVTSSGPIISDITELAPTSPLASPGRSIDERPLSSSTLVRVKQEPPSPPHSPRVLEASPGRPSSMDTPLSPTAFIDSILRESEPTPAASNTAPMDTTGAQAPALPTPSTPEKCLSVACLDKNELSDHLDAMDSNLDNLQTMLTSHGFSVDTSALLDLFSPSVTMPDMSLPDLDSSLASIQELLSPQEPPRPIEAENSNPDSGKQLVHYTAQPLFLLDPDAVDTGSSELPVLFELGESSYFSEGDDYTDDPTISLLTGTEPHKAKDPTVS
The assay can be described thus: inhibition of MG132-induced HSE-luciferase signal, confirmation, cell-based, NIH3T3, luminescence, dose retest (AID 2382).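 Note: NIH3T3 fibroblasts with HSF1-driven luciferase reporter stressed by proteasome inhibitor MG132; luminescence from HSF1-driven luciferase expression after 8 hours of MG132 stress.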 The class given is functional.

The target of assay [23] is T6, Cannabinoid receptor 2. Nature of the assay: SAR analysis of antagonists of the Cannabinoid Receptor 2 using an Image-Based Assay. [Related pubchem assays (depositor defined):AID2013, AID2026]. The class given is functional.
Assay [24] has as its target T6, Cannabinoid receptor 2. The assay can be described thus: SAR analysis of agonists of the Cannabinoid Receptor 2 using an Image-Based Assay - Set 2. [Related pubchem assays (depositor defined):AID1961, AID1965]. The class given is functional.
Assay [25] addresses T5, Cannabinoid receptor 1. Nature of the assay: SAR analysis of antagonists of the Cannabinoid Receptor 1 using an Image-Based Assay. [Related pubchem assays (depositor defined):AID1961, AID1965]. The class given is functional.
Assay [26] deals with T6, Cannabinoid receptor 2. Nature of the assay: SAR analysis of antagonists of the Cannabinoid Receptor 2 using an Image-Based Assay - Set 2. [Related pubchem assays (depositor defined):AID1961, AID1965]. The class given is functional.
The target in assay [27] is T4, G-protein coupled receptor 55. The assay can be described thus: GPR55 agonists via beta-arrestin recruitment, primary screen, imaging, U2OS cells, beta-arrestin-GFP redistribution (AID 1961). The class given is functional.
Assay [28] has the same target. Nature of the assay: SAR analysis of selective Agonists of GPR55 using an Image-Based Assay. [Related pubchem assays (depositor defined):AID1961, AID1965]. The class given is functional.

T4 sequence (Q9Y2T6 whole entry): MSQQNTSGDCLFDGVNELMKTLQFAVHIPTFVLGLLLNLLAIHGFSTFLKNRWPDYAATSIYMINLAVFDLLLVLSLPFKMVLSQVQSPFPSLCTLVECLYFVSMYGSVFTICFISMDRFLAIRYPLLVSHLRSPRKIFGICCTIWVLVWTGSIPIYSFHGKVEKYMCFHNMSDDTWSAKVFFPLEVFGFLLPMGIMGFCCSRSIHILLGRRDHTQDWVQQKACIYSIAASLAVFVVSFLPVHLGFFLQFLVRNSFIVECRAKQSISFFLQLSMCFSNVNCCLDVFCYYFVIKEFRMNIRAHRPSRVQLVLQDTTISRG
T6 sequence (P34972 whole entry): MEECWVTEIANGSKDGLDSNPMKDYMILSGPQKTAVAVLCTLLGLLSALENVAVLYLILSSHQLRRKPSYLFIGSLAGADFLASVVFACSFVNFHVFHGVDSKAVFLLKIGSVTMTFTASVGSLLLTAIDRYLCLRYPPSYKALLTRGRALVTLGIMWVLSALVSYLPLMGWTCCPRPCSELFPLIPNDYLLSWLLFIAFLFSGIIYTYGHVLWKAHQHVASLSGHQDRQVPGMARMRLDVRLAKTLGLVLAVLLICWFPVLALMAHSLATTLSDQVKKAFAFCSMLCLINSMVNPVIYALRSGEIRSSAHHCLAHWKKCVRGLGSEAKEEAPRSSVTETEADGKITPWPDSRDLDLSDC
T5 sequence (P21554 whole entry): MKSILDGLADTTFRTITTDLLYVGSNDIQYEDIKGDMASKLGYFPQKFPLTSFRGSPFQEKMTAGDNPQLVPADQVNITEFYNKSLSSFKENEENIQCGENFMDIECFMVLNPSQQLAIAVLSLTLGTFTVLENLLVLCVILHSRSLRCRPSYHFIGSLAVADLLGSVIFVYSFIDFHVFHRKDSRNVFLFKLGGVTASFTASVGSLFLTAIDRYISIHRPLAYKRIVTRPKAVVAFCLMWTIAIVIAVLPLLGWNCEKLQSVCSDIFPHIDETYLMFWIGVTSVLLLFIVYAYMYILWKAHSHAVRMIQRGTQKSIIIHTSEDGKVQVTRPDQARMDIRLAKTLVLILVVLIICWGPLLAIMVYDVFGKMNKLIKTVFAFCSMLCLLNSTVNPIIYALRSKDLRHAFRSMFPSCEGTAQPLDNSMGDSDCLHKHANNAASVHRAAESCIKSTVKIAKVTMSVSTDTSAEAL
T7 sequence (Q9HC97 whole entry): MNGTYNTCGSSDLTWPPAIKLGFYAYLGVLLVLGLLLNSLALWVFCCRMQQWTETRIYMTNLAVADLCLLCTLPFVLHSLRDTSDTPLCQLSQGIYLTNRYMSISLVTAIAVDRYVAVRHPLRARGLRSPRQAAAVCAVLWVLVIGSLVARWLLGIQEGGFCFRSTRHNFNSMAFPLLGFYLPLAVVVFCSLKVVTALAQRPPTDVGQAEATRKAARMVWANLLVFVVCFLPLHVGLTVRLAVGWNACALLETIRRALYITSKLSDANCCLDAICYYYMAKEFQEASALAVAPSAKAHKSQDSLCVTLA
Chain of Serine/threonine-protein phosphatase PP1-alpha catalytic subunit (P62136 whole entry): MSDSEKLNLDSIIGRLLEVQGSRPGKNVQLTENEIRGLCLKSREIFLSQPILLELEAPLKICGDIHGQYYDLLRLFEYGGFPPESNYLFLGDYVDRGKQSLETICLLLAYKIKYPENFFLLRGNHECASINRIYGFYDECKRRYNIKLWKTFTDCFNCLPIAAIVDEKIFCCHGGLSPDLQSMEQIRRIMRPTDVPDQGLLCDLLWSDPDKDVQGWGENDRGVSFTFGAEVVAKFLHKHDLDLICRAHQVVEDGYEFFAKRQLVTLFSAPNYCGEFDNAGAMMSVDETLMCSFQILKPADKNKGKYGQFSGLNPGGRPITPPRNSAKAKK
Chain of Peroxisome proliferator-activated receptor gamma/Nuclear receptor corepressor 2 (P37231 whole entry): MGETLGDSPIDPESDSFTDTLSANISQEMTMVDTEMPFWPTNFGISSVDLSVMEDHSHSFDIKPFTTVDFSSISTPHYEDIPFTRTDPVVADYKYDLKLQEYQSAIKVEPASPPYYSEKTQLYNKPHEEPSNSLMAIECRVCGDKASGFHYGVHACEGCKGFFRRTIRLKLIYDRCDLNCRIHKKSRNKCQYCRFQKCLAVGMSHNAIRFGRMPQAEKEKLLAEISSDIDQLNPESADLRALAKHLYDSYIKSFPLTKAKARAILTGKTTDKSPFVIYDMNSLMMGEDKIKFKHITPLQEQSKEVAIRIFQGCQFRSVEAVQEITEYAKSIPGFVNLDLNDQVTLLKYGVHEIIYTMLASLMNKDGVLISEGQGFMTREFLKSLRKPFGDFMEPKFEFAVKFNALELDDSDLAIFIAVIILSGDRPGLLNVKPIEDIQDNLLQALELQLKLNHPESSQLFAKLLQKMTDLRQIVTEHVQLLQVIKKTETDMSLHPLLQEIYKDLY
Chain of Peroxisome proliferator-activated receptor gamma/Nuclear receptor corepressor 2 (Q9Y618 whole entry): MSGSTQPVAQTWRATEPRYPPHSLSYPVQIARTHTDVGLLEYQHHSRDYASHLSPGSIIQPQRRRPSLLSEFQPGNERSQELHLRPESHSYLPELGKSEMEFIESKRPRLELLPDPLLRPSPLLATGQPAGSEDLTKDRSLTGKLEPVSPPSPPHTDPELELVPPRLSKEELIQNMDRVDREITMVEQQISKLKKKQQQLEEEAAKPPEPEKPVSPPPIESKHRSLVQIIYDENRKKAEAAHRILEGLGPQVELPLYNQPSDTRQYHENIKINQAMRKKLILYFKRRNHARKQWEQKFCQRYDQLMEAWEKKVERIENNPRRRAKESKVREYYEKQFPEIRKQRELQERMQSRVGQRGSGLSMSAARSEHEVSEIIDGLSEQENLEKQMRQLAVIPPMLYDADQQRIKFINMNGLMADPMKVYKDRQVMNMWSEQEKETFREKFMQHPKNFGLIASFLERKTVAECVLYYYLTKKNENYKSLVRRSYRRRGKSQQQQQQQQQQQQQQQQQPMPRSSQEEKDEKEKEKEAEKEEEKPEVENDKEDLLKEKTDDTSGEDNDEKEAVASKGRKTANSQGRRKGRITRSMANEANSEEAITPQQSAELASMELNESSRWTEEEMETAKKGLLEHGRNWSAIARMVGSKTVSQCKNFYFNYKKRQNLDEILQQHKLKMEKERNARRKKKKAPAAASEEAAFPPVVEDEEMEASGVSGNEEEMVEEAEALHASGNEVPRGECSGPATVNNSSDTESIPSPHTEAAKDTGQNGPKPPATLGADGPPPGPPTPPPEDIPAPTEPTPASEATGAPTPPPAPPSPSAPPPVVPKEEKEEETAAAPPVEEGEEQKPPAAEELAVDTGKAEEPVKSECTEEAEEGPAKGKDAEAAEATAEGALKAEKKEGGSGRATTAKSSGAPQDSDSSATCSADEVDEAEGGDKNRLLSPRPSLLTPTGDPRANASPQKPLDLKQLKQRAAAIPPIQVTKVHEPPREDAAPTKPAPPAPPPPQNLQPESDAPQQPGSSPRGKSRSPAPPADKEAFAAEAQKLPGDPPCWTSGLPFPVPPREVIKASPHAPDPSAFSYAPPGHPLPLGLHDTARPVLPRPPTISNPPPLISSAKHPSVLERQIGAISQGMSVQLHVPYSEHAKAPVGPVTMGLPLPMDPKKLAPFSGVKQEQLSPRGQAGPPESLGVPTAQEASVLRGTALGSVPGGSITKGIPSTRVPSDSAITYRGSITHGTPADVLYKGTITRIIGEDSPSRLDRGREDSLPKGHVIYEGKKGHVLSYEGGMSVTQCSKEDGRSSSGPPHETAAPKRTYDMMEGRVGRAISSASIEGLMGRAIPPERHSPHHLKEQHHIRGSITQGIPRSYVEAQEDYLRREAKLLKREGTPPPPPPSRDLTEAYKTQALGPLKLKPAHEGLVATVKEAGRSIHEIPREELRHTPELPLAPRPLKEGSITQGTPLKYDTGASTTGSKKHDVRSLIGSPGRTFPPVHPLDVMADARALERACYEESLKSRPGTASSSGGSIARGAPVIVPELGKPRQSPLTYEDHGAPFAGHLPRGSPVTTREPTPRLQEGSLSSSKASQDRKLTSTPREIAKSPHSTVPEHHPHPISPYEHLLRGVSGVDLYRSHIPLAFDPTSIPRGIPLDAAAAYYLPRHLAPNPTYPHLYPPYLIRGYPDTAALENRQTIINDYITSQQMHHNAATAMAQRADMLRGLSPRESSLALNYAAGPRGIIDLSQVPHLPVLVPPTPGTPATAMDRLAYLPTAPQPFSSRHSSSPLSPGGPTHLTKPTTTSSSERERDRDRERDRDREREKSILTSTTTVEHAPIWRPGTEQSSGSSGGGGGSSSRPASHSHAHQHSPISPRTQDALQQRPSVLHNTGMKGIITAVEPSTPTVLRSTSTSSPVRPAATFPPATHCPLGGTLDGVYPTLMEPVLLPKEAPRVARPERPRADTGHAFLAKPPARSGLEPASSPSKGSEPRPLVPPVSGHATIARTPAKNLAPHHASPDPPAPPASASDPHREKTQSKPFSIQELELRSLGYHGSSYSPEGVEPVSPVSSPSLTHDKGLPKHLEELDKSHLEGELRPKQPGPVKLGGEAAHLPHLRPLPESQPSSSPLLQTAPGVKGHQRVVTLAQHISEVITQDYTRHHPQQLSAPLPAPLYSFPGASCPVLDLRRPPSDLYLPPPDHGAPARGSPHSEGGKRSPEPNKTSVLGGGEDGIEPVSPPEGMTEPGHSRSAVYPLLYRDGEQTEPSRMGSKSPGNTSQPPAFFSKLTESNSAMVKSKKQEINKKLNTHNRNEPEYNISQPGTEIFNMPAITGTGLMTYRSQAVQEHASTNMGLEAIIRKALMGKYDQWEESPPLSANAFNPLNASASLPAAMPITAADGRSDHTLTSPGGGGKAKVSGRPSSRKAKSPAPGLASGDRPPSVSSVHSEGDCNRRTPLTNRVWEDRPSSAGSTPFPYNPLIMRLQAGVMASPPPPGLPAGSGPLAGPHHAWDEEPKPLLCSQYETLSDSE
Chain of Likely tRNA 2'-phosphotransferase (Q5A7N4 whole entry): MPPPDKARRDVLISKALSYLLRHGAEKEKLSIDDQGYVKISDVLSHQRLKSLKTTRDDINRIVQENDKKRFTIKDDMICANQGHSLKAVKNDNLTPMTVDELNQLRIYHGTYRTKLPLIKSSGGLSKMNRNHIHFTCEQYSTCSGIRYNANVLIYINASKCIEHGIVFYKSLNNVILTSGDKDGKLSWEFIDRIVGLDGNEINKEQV

As to `COc1ccc(Cl)cc1C(=O)Nc1cccc(-c2ccc3nncn3n2)c1`, the IC50 was 9.03 µM (active) on Major prion protein; 12 µM (active) in assay [1]; 6.56 µM (active) in assay [2]; 5.93 µM (active) in assay [3]; 37.9 µM (active) in assay [4]; > 99 µM (inactive) in [5]. For the same molecule, the IC50 was 16 µM (active) in assay [6]; 7.18 µM (active) in assay [7]; 30.2 µM (active) at Prothrombin; 38.5 µM (active) in [8]; 2.86 µM (active) in assay [9]; 50.8 µM (active) in [10]. The IC50 in [11] is 5.06 µM (active); in assay [12], > 67 µM (not active); in the assay “cells”, > 138 µM (inactive); in [13], 8.37 µM (active); in assay [14] it was 48.7 µM (active).

`CCN1C(=O)C(c2ccc(O)cc2)(c2ccc(O)cc2)c2ccccc21`: the IC50 in [15] was 0.506 µM (active); in [16] it was 1.74 µM (active); at Cannabinoid receptor 1 [18] it was 22 µM (inactive); in assay [21], > 32 µM (inactive); at Cannabinoid receptor 2 [23], > 32 µM (inactive). The EC50 on Cannabinoid receptor 1 [17] is > 32 µM (inactive); on Cannabinoid receptor 2 [19] it was > 32 µM (inactive); in assay [20], > 32 µM (inactive); in [22] it was > 195 µM (not active).

Regarding `CC(C)Oc1ccc(S(=O)(=O)N2CCOCC2)cc1NC(=O)c1ccc(N2CCCC2=O)cc1`, the EC50 at Cannabinoid receptor 2 [24] is > 32 µM (inactive); in assay [27] it was 0.969 µM (active); in assay [28], 0.88 µM (active). Also, the IC50 at Cannabinoid receptor 1 [25] and on Cannabinoid receptor 2 [26] was > 32 µM (inactive) each time.
